These results are taken from patent US20180217131A1, “Novel Cell Based Assay” (Medical Diagnostic Laboratories, LLC, priority 2017, published 2018).

Positions count from the first letter of the chain named.

What all share (format): cell-based
The target of assay [1] is T1, aromatase (wild-type CYP19A1) (Homo sapiens, UniProt P11511).
T1 construct: expressed in transfected cells; host or cells: HEK 293-derived 3xERE-luc clone #4 (co-transfected with ESR1) or clone #1 (stably expressing wild-type ESR1)
T1 sequence (P11511 1-503): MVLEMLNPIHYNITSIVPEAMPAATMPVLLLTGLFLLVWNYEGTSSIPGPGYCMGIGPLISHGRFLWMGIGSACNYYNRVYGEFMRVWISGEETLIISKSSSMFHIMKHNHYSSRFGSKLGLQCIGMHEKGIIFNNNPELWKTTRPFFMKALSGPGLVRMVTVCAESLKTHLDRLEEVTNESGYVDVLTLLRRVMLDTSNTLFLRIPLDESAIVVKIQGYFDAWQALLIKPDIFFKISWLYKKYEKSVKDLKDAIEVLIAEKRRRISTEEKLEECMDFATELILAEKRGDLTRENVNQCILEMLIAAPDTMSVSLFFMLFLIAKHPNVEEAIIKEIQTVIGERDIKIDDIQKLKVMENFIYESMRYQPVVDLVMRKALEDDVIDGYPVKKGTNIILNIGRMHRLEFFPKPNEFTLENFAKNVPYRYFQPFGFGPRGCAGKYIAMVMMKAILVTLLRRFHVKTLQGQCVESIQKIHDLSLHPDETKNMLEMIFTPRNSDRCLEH
In words: Aromatase reporter assay, 3×ERE-luc clone #4 cells transfected with expression constructs of estrogen receptor and aromatase. Conditions: 24 hours; for testosterone-induced luciferase reporter activity in the presence of aromatase inhibitor: clone #4, testosterone with or without inhibitor. The method, then: A serial dilution of testosterone was added to the cells for 24 hours. The luciferase reporter activity was measured.
The transfected cells were treated with testosterone in the presence or absence of aromatase inhibitors, anastrozole and letrozole, for 24 hours (FIG. 31).
(In a reporter assay the amount or activity of a reporter protein is the signal.)

Assay [2] has as its target T1, aromatase (wild-type CYP19A1). In words: Aromatase reporter assay, clone #1 cells (stable 3×ERE-Luc and wild-type ESR1) transfected with linear expression cassette of wild-type CYP19A1. The method, then: The luciferase reporter activity was measured 24 hours post-transfection.
Assay [3] has as its target T2, R192H mutant of aromatase (CYP19A1) (Homo sapiens, UniProt P11511, R192H).
T2 construct: expressed in transfected cells; host or cells: HEK 293-derived reporter cells (clone #4 with ESR1 co-transfected; clone #1 stably expressing ESR1)
T2 sequence (P11511 1-503 R192H): T1 sequence (P11511 1-503) with R192H
Briefly: Aromatase reporter assay with R192H mutant of CYP19A1. How it is done: (§1) The transfected cells were treated with a serial dilution of testosterone. The luciferase reporter activity was measured 24 hours post-transfection.
R192H corresponds to a missense mutation of CYP19A1, which changed arginine (R) into histidine (H) at amino acid position of 192. In order to functionally characterize this mutation, PCR-mediated overlapping extension was employed to construct linear expression cassette of aromatase carrying this mutation. We first transfected the linear expression cassette of either wild-type aromatase or mutant aromatase DNA into the reporter cells followed by treatment with testosterone and its inhibitors using “all-in-one” method. The luciferase reporter activity was measured 24 hours post-transfection.
We used the formula as illustrated in the above-mentioned example to calculate the activity of aromatase.

In assay [4] the target is T3, R435C mutant of aromatase (CYP19A1) (Homo sapiens, UniProt P11511, R435C).
T3 construct: expressed in transfected cells; host or cells: HEK 293-derived reporter cells (clone #4 with ESR1 co-transfected; clone #1 stably expressing ESR1)
T3 sequence (P11511 1-503 R435C): T1 sequence (P11511 1-503) with R435C
Briefly: Aromatase reporter assay with R435C mutant of CYP19A1. How it is done: as §1
R435C corresponds to a missense mutation of CYP19A1, which changed arginine (R) into cysteine (C) at amino acid position of 435. In order to functionally characterize this mutation, PCR-mediated overlapping extension was employed to construct linear expression cassette of aromatase carrying this mutation. We first transfected the linear expression cassette of either wild-type aromatase or mutant aromatase DNA into the reporter cells followed by treatment with testosterone and its inhibitors using “all-in-one” method. The luciferase reporter activity was measured 24 hours post-transfection.

Turning to `CC(C)(C#N)c1cc(Cn2cncn2)cc(C(C)(C)C#N)c1` [anastrozole], in assay [1], the “testosterone-induced luciferase reporter activity in the presence of aromatase inhibitor” value was “reduced”.

As for `N#Cc1ccc(C(c2ccc(C#N)cc2)n2cncn2)cc1` [letrozole], in assay [1], the “testosterone-induced luciferase reporter activity in the presence of aromatase inhibitor” value was “reduced”.

Consider `C[C@]12CC[C@H]3[C@@H](CCC4=CC(=O)CC[C@@]43C)[C@@H]1CC[C@@H]2O` [testosterone], for which, in assay [2] (clone #1, 25 ng or 50 ng aromatase linear DNA, testosterone for 6 hours), the “luciferase reporter activity upon addition of testosterone” value is “responded to testosterone in a dose-dependent manner”. Besides, the “reporter signal at 1 pM of testosterone” value in assay [2] (clone #1, 50 ng linear cassette, testosterone for 24 hours, 1 pM) is given as “robust reporter signal was detected”. Moreover, the “luciferase activity upon treatment of testosterone” value was “dose dependent activation of luciferase activity was observed” in assay [1] (clone #4, estrogen receptor and aromatase constructs, serial dilution of testosterone); “no increase in luciferase activity was observed” in assay [4] (clone #1, linear expression cassette of R435C, all-in-one method). In addition, the “luciferase activity upon treatment of testosterone, compared to wild type” value in assay [3] (clone #1, linear expression cassette of R192H, all-in-one method) is recorded as “reduced luciferase activity was observed”. In addition, the “luciferase reporter activity upon testosterone, compared to wild type” value in assay [3] (clone #4, expression constructs of estrogen receptor and R192H aromatase, serial dilution of testosterone) is “reduced luciferase reporter activity”. In addition, the “induction of luciferase reporter activity upon testosterone exposure” value in assay [4] (clone #4, expression constructs of estrogen receptor and R435C aromatase) is reported as “no induction of luciferase reporter activity”.
